From patent publication US20140011676A1, “1, 8 -DIAZASPIRO [4.5] DECANE- 2, 4 -DIONE DERIVATIVES USEFUL AS PESTICIDES” (SYNGENTA PARTICIPATIONS AG, priority 2010, published 2014)
Like-named read-outs stand apart in the source and are kept apart here.

Columns and labels:
[1] = system: Myzus persicae (green peach aphid); conditions: foliar, 144 h, read-out: activity (mortality) against Myzus persicae
[2] = system: Tetranychus urticae (two-spotted spider mite); experiment: whole plant or invertebrate; conditions: foliar, 192 h, read-out: activity (egg, larval and adult mortality) against Tetranychus urticae
[3] = system: Myzus persicae (green peach aphid); experiment: Activity against Myzus persicae on cabbage plants, feeding/residual contact activity, spray chamber; format: in vivo; conditions: 144 h, 6 days after treatment
[4] = system: Thrips tabaci (onion thrips); conditions: foliar, 144 h, read-out: activity (mortality) against Thrips tabaci
cabbage plants = conditions: in vivo, 6 days, 200 ppm
[5] = system: Myzus persicae (green peach aphid); experiment: Activity against Myzus persicae, mixed population, systemic/feeding activity, curative (pea seedlings); conditions: 144 h, read-out: activity (mortality) against Myzus persicae, systemic

melting point [°C]	SMILES	mortality at 400 ppm [1] [%]	mortality at 400 ppm [2] [%]	mortality at 200 ppm [3] [%]	mortality at 400 ppm [4] [%]	damage to cabbage plants (phytotoxicity) (cabbage plants) [%]	mortality at 400 ppm [5] [%]
–	CON1CCC2(CC1)C(=O)C(Cl)(c1cc(C)c(C)cc1Cl)C(=O)N2C (stereo not shown) [Compound P1.1, 3-Chloro-3-(2-chloro-4,5-dimethyl-phenyl)-8-methoxy-1-methyl-1,8-diaza-spiro[4.5]decane-2,4-dione]	> 80	> 80	–	–	–	–
–	CON1CCC2(CC1)C(=O)C(Cl)(c1cc(Br)c(C)cc1C)C(=O)N2C (stereo not shown) [Compound P1.2]	> 80	–	≥ 80	> 80	≤ 10	–
–	CON1CCC2(CC1)C(=O)C(Cl)(c1c(C)cc(Br)cc1C)C(=O)N2C (stereo not shown) [Compound P1.3]	> 80	–	≥ 80	–	≤ 10	> 80
–	CON1CCC2(CC1)C(=O)C(Cl)(c1c(C)cc(C)cc1C)C(=O)N2C (stereo not shown) [Compound P1.4]	> 80	–	≥ 80	> 80	≤ 10	> 80
–	CON1CCC2(CC1)C(=O)C(Cl)(c1cc(C)ccc1C)C(=O)N2C (stereo not shown) [Compound P1.5, 3-Chloro-3-(2,5-dimethyl-phenyl)-8-methoxy-1-methyl-1,8-diaza-spiro[4.5]decane-2,4-dione]	–	–	≥ 80	–	≤ 10	–
–	CON1CCC2(CC1)C(=O)C(Cl)(c1cc(C)c(C)cc1C)C(=O)N2CC1CC1 (stereo not shown) [Compound P1.6]	–	–	≥ 80	–	≤ 10	–
–	CON1CCC2(CC1)C(=O)C(Cl)(c1c(C)cccc1C)C(=O)N2C (stereo not shown) [Compound P1.7]	–	–	≥ 80	–	≤ 10	> 80
–	CON1CCC2(CC1)C(=O)C(Cl)(c1c(C)cc(C)cc1C)C(=O)N2CC1CCCO1 (stereo not shown) [Compound P1.8]	–	–	≥ 80	–	≤ 10	–
115 to 117	COc1cc(Cl)cc(C)c1C1(Cl)C(=O)N(C)C2(CCN(OC)CC2)C1=O (stereo not shown) [Compound P1.10]	–	–	–	–	–	–
–	CCc1cc(Cl)cc(C)c1C1(Cl)C(=O)N(C)C2(CCN(OC)CC2)C1=O (stereo not shown) [Compound P1.11]	> 80	–	≥ 80	–	≤ 10	–
–	CON1CCC2(CC1)C(=O)C(Cl)(c1c(C)ccc(-c3ccc(Cl)cc3)c1C)C(=O)N2C (stereo not shown) [Compound P1.12]	> 80	–	≥ 80	–	≤ 10	–
–	CON1CCC2(CC1)C(=O)C(c1c(C)cc(C)cc1C)([N+](=O)[O-])C(=O)N2C (stereo not shown) [Compound P1.13, 8-Methoxy-1-methyl-3-nitro-3-(2,4,6-trimethyl-phenyl)-1,8-diaza-spiro[4.5]decane-2,4-dione]	> 80	–	≥ 80	–	≤ 10	–
–	COCCN1C(=O)C(Cl)(c2c(C)cc(Cl)cc2C)C(=O)C12CCN(OC)CC2 (stereo not shown) [Compound P1.14]	> 80	–	≥ 80	–	≤ 10	–
